Measurements taken from US10517889B2, “Modulators of SMAD7 expression” (Ionis Pharmaceuticals, Inc., priority 2017, dated 2019).

Columns and labels:
[1] = Hematology assays after subcutaneous administration in CD-1 mice (Example 6); type: in vivo; set-up: RBC / Eosinophils / Monocytes: unit not given here; details: 50 mg/kg subcutaneous twice weekly for 7 weeks; for Basophils: n.d. = below detection levels
Protocol: Groups of 8-9 week old male CD-1 mice were injected subcutaneously twice a week for 7 weeks with 50 mg/kg of Ionis oligonucleotides (100 mg/kg/week dose). Each group contained 4 mice. One group of male CD-1 mice was injected subcutaneously twice a week for 7 weeks with PBS. Plasma was collected for analysis on day 28.
Blood obtained from all mouse groups was measured by an ADVIA2120i hematology analyzer (Siemens, USA) for measurements of the various blood cells, as well as other hematology markers.

human SMAD7 mRNA = assay: Dose-dependent inhibition of human SMAD7 mRNA expression in Hep3B cells, comparison with ION 28453 (Example 4); type: cell-based; details: electroporation, approximately 16 hours
Protocol: Cells were plated at a density of 20,000 cells per well and transfected using electroporation with 0.25 μM, 0.74 μM, 2.22 μM, 6.67 μM, or 20.00 μM concentrations of antisense oligonucleotide, as specified in the Tables below. After a treatment period of approximately 16 hours, RNA was isolated from the cells and SMAD7 mRNA levels were measured by quantitative real-time PCR. Primer probe set RTS5062 was used to measure human SMAD7 mRNA levels. SMAD7 mRNA levels were adjusted according to total RNA content, as measured by RIBOGREEN®. Results are presented as percent inhibition of SMAD7 mRNa expression, relative to untreated control cells.
The half maximal inhibitory concentration (IC50) of each oligonucleotide is also presented. […] Several newly designed antisense oligonucleotides had greater potency than the previously disclosed lead compound, ION 28453.

829994 (GGAGGCAGGGCCGCGA; 3-10-3 cEt gapmer, further chemistry not given here) [compound 829994]
Eosinophils [1]: 1.3 | Hematocrit [1]: 36.6% | Hemoglobin [1]: 12.0 g/dL | Lymphocytes [1]: 79.4% | MCH [1]: 15.5 pg | MCHC [1]: 32.7 g/dL | MCV [1]: 47.3 fL | Monocytes [1]: 3.0 | Neutrophils [1]: 16.4% | RBC [1]: 7.7 | Reticulocytes [1]: 3.7% | WBC [1]: 5.0 10^3/μL | platelets [1]: 841.3 10^3/μL

830121 (AGAATCAAGCCCTGGC; 3-10-3 cEt gapmer, further chemistry not given here) [compound 830121]
Eosinophils [1]: 3.5 | Hematocrit [1]: 40.4% | Hemoglobin [1]: 13.6 g/dL | Lymphocytes [1]: 75.3% | MCH [1]: 15.3 pg | MCHC [1]: 33.6 g/dL | MCV [1]: 45.5 fL | Monocytes [1]: 5.1 | Neutrophils [1]: 15.8% | RBC [1]: 8.9 | Reticulocytes [1]: 4.5% | WBC [1]: 10.1 10^3/μL | platelets [1]: 765.0 10^3/μL | Basophils [1]: 0.3 10^3/μL

798781 (CGTAAGATTCACAGCA; 3-10-3 cEt gapmer, further chemistry not given here) [compound 798781]
Eosinophils [1]: 2.4 | Hematocrit [1]: 42.3% | Hemoglobin [1]: 13.8 g/dL | Lymphocytes [1]: 73.7% | MCH [1]: 14.9 pg | MCHC [1]: 32.6 g/dL | MCV [1]: 45.8 fL | Monocytes [1]: 5.2 | Neutrophils [1]: 18.8% | RBC [1]: 9.3 | Reticulocytes [1]: 3.3% | WBC [1]: 4.9 10^3/μL | platelets [1]: 867.3 10^3/μL | % inhibition of SMAD7 mRNA expression (human SMAD7 mRNA; 0.25 μM): 12% | % inhibition of SMAD7 mRNA expression (human SMAD7 mRNA; 0.74 μM): 38% | % inhibition of SMAD7 mRNA expression (human SMAD7 mRNA; 2.22 μM): 66% | % inhibition of SMAD7 mRNA expression (human SMAD7 mRNA; 6.67 μM): 66% | % inhibition of SMAD7 mRNA expression (human SMAD7 mRNA; 20.00 μM): 87% | IC50 (human SMAD7 mRNA; SMAD7 mRNA): 2000 nM

790615 (CCAATGAGAATGCTTC; 3-10-3 cEt gapmer, further chemistry not given here) [compound 790615]
Eosinophils [1]: 2.5 | Hematocrit [1]: 46.2% | Hemoglobin [1]: 15.2 g/dL | Lymphocytes [1]: 82.8% | MCH [1]: 14.7 pg | MCHC [1]: 32.8 g/dL | MCV [1]: 44.8 fL | Monocytes [1]: 5.0 | Neutrophils [1]: 9.7% | RBC [1]: 10.3 | Reticulocytes [1]: 3.5% | WBC [1]: 10.5 10^3/μL | platelets [1]: 1055.8 10^3/μL | Basophils [1]: 0.1 10^3/μL

830025 (antisense TTTGTAAATCGAAAGC; 3-10-3 cEt gapmer, further chemistry not given here) [compound 830025]
Eosinophils [1]: 3.8 | Hematocrit [1]: 38.7% | Hemoglobin [1]: 12.5 g/dL | Lymphocytes [1]: 83.2% | MCH [1]: 15.7 pg | MCHC [1]: 32.3 g/dL | MCV [1]: 48.8 fL | Monocytes [1]: 3.2 | Neutrophils [1]: 9.3% | RBC [1]: 8.0 | Reticulocytes [1]: 3.3% | WBC [1]: 4.8 10^3/μL | platelets [1]: 805.0 10^3/μL | Basophils [1]: 0.6 10^3/μL
